Holding throughout (experiment): fluorescent intercalator displacement (thiazole orange)
Details in all cases: 50 mM KCl, 10 mM potassium cacodylate (60 mM K+); pH 7.4, room temperature; thiazole orange 0.625 μM displaced; DNA 0.25 μM; DMSO stocks

Assay [1] relates to c-Myc (DNA, G4) GGGAGGGTGGGGAGGGTGGG
Assay [2] has as its system c-Kit (c-Kit21) (DNA, G4) CGGGCGGGCGCGAGGGAGGGG
The test system of assay [3] is KRAS m(1:5:1) (DNA, G4) GGGAGGGAAGGAGGGAGGG
Assay [4] deals with KRAS m(1:9:1) (DNA, G4) GGGAGGGAAGGAGGGAGGGAGGG
Assay [5] deals with ds26 (DNA, duplex) CAATCGGATCGAATTCGATCCGATTG
Assay [6] concerns HIF1α (HIF1) (DNA, G4) CGGGGAGGGGAGAGGGGGCGGGA
The test system of assay [7] is hTERT (DNA, G4) GGGGAGGGGCTGGGAGGGCCC
Assay [8] relates to VEGF (VEGF22) (DNA, G4) CGGGGCGGGCCGGGGGCGGGGT
Assay [9] has as its system HTelo (DNA, G4) AGGGTTAGGGTTAGGGTTAGGG

Regarding `O=C(N/N=C/c1ccc(O)cc1[O-])N(Cc1ccccc1)Cc1ccccc1.[Cu+2].c1ccncc1`, the DC50 was 7.15 (0.17) μM in [1]; 3.58 (0.28) μM in [2]; 2.28 (0.10) μM in assay [3]; 2.35 (0.09) μM in assay [4]; 9.91 (0.55) μM in assay [5]; 10.20 (0.54) μM in assay [6]. The results for the DC50 in assay [7], in assay [8] and in assay [9] were 10.51 (0.61) μM, 11.58 (0.41) μM and 1.01 (0.03) μM, respectively.

Values taken from article PMC5107956 (2016).
